{
  "source": "patent US4002738A",
  "about": "“Treatment of specified neoplasias” (Abbott Laboratories, priority 1975, dated 1977)",
  "key": {"[1]": {"system": "spontaneous growth in the right lateral mammary region (adenocarcinoma of the mammary gland)", "experiment": "Spontaneous mammary tumor in a female rat, subcutaneous treatment", "assay_type": "in vivo", "protocol": "A female rat that had developed a spontaneous growth in the right lateral mammary region was given b.i.d. 10 μg. of the compound of formula I (R'= isobutyl; R = ethyl). […] On day 9, a biopsy was performed and the tumor was identified as adenocarcinoma of the mammary gland. Treatment was stopped after 20 days and the animal was observed periodically. Tumor growth reappeared in the same area with rapid growth observed on day 65 (counted from original treatment beginning). […] Treatment with the above regimen was started again. The tumor regressed again and on day 93, its diameter was 1.2 cm. and its depth was 0.4 cm. […] However, the tumor remained dormant until day 147 (54 days following the last treatment), when significant growing resumed."}, "[2]": {"system": "tumors induced by 7,12-dimethylbenzanthracene (DMBA)", "experiment": "DMBA-induced tumors in female rats, subcutaneous treatment", "assay_type": "in vivo, rat", "protocol": "In a group of 3 female, 50-day old rats, tumors were induced by intragastric feeding of 20 mg of 7,12-dimethylbenzanthracene (DMBA) in 2 ml. of sesame oil. The animals developed tumors within 10-12 weeks. All animals were maintained on normal rations for 100 days following the DMBA administration, at which time treatment with the compound of formula I (R = ethyl; R' = isobutyl) was started at a b.i.d. regimen Monday through Friday with a single dose on Saturday, the compound being subcutaneously administered as a 0.2% (wt/vol.) solution in isotonic saline.\nThe first animal carrying 4 tumors of volumes of 5.5, 3, 1 and 1 cc. respectively, was given the above regimen with 10 μg per dose.\nIn the second animal carrying 3 tumors, each dose contained only 5 μg of the drug.\nThe third animal had developed 5 tumors, measuring 6.5, 3.5, 1.5, 0.5 and 0.5 cc. respectively. After treatment with 2.5 μg. per dose of the test drug, these tumors were reduced to 1.5, 3.0, 0.5, 0.2 and >0.0 cc. in that sequence."}, "[3]": {"conditions": "day 66, regrowth after treatment was stopped on day 20, before second treatment"}},
  "data": [
    {"smiles": "CCNC(=O)[C@@H]1CCCN1C(=O)[C@H](CCCNC(=N)N)NC(=O)[C@H](CC(C)C)NC(=O)[C@@H](CC(C)C)NC(=O)[C@H](Cc1ccc(O)cc1)NC(=O)[C@H](CO)NC(=O)[C@H](Cc1c[nH]c2ccccc12)NC(=O)[C@H](Cc1c[nH]cn1)NC(=O)[C@@H]1CCC(=O)N1", "values": [
      {"measurement": "day until which the tumor remained dormant before significant growing resumed", "setting": "[1]; counted from original treatment beginning, 54 days following the last treatment", "value": 147, "unit": "days"},
      {"measurement": "tumor diameter", "setting": "[1]; day 5 of treatment, 10 μg b.i.d. subcutaneous, diameter before treatment 3 cm", "value": 2, "unit": "cm"},
      {"measurement": "tumor diameter", "setting": "[1]; day 9 of treatment, 10 μg b.i.d. subcutaneous, diameter before treatment 3 cm", "value": 0.5, "unit": "cm"},
      {"measurement": "tumor diameter", "setting": "[1]; day 20 of treatment, 10 μg b.i.d. subcutaneous, diameter before treatment 3 cm", "value": "undetectable size"},
      {"measurement": "tumor depth", "setting": "[1]; [3]", "value": 2, "unit": "cm"},
      {"measurement": "tumor diameter", "setting": "[1]; [3]", "value": 4, "unit": "cm"},
      {"measurement": "tumor depth", "setting": "[1]; day 93, second treatment started day 66 (depth then 2 cm), 10 μg b.i.d. subcutaneous", "value": 0.4, "unit": "cm"},
      {"measurement": "tumor diameter", "setting": "[1]; day 93, second treatment started day 66 (diameter then 4 cm), 10 μg b.i.d. subcutaneous", "value": 1.2, "unit": "cm"},
      {"measurement": "tumor volume", "setting": "[2]; first animal, 4 tumors of 5.5, 3, 1 and 1 cc, 10 μg per dose, after 2 weeks, the other two tumors", "value": "immeasurable volumes"},
      {"measurement": "tumor volume", "setting": "[2]; first animal, 4 tumors of 5.5, 3, 1 and 1 cc, 10 μg per dose, after 2 weeks, two of the tumors", "value": 1, "unit": "cc"},
      {"measurement": "effect on tumor", "setting": "[2]; second animal, 3 tumors, 5 μg per dose, one tumor", "value": "seemingly unaffected"},
      {"measurement": "tumor volume", "setting": "[2]; second animal, 5 μg per dose, tumor of 3 cc before treatment", "value": "11/4"},
      {"measurement": "tumor volume", "setting": "[2]; second animal, 5 μg per dose, tumor of 4 cc before treatment", "value": 2, "unit": "cc"},
      {"measurement": "tumor volume", "setting": "[2]; third animal, 2.5 μg per dose, first tumor of 0.5 cc before treatment", "value": 0.2, "unit": "cc"},
      {"measurement": "tumor volume", "setting": "[2]; third animal, 2.5 μg per dose, second tumor of 0.5 cc before treatment", "value": "> 0.0", "unit": "cc"},
      {"measurement": "tumor volume", "setting": "[2]; third animal, 2.5 μg per dose, tumor of 1.5 cc before treatment", "value": 0.5, "unit": "cc"},
      {"measurement": "tumor volume", "setting": "[2]; third animal, 2.5 μg per dose, tumor of 3.5 cc before treatment", "value": 3.0, "unit": "cc"},
      {"measurement": "tumor volume", "setting": "[2]; third animal, 2.5 μg per dose, tumor of 6.5 cc before treatment", "value": 1.5, "unit": "cc"}
    ]}
  ]
}
